Assay results from patent publication US9120776B2, “Condensed heterocyclic compound” (Takeda Pharmaceutical Company Limited, priority 2011, dated 2015).

What was measured:
[1] = biological target: T1, RORγt (Homo sapiens, UniProt P51449); test: Jurkat Reporter Test (human IL-17 ROR response element luciferase, RORγt vector); assay type: cell-based; settings: luminescence level inhibitory rate at test compound 3 μM, Jurkat cells; read-out: inhibitory rate (%)
T1 sequence (P51449 1-497 isoform P51449-2): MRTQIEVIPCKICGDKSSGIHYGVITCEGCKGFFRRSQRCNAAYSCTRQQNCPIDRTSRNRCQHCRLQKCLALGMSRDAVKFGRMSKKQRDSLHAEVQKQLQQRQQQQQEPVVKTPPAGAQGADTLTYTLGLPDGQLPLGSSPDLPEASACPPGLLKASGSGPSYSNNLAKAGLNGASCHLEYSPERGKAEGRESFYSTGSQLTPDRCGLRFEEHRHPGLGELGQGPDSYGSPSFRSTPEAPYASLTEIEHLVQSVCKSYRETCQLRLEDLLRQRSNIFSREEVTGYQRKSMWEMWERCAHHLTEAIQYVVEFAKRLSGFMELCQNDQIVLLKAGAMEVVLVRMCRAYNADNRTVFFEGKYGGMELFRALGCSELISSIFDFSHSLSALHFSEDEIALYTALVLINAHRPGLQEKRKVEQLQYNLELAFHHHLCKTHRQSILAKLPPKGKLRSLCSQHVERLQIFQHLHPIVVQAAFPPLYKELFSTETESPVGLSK
Method: The Jurkat cells used for the reporter test were cultured in a culture medium (RPMI (Invitrogen), 10% FCS (AusGeneX), 100 U/mL penicillin, 100 μg/mL streptomycin). On the day of the test, 4×10^7 cells were recovered by a centrifugal operation (1000 rpm, 5 min.) and suspended in PBS (phosphate buffered saline) (Invitrogen). Thereafter, the cells were recovered again by a centrifugal operation, and suspended in 2 mL of R buffer (NEON transfection kit, Invitrogen). […] Gene transfer was performed by Electroporation apparatus (NEON, Invitrogen) under the conditions of pulse voltage 1350 V, interval 10 milliseconds, number of times 3. The cells after gene transfer were suspended in 40 mL of a reaction medium (RPMI, 10% Lipid reduced FCS (HyClone), 10 mM HEPES (pH 7.5), 100 U/mL penicillin, 100 μg/mL streptomycin, 5 μM lovastatin), and plated in a 96 well plate by 90 μL each. A test compound diluted with the reaction medium was added by 10 μL each, and the cells were cultured overnight in an incubator. Bright-Glo (Promega) was added by 100 μL each, and the mixture was stirred at room temperature for 10 min, and the luminescence level was measured by Envision (PerkinElmer).

[2] = biological target: T1, RORγt; test: RORγt Binding Test (TR-FRET, fluorescent-labeled cholesterol); set-up: histidine tag (implied by the Histidine Detection Kit); settings: binding inhibitory rate of fluorescent-labeled cholesterol to RORγt at test compound 1 μM
Method: The binding activity of the test compound to RORγt was measured by a time resolved fluorescence resonance energy transfer method (TR-FRET) utilizing histidine-tagged RORγt, fluorescent-labeled cholesterol (BODIPY-cholesterol, AVIVA) and terbium-labeled anti-histidine tag antibody (Invitrogen). First, a test compound diluted with an assay buffer (20 mM Tris-HCl (pH 7.5), 100 mM NaCl, 1 mM DTT, 0.1% BSA) was added to a 384 well plate by 3 μL each. Then, RORγt diluted with an assay buffer to 240 nM was added by 3 μL each, after which fluorescent-labeled cholesterol diluted with the assay buffer to 12 μM was added by 3 μL each, and the mixture was stood at room temperature for 20 min. Thereafter, a terbium-labeled anti-histidine tag antibody diluted with the assay buffer to 8 nM was added by 3 μL each. The mixture was stood at room temperature for 20 min, and fluorescence intensity (excitation wavelength 320 nm, fluorescence wavelength 520 nm, delay time 100 microseconds) was measured by Envision (PerkinElmer).

[3] = biological target: T1, RORγt; test: Cofactor Recruitment Test (Alpha Screen, biotinylated SRC-1 peptide); assay type: biochemical; set-up: histidine tag (implied by the Histidine Detection Kit); settings: signal value inhibitory rate at test compound 1 μM
Method: Cofactor recruitment test was performed by Alpha Screen (Histidine Detection Kit, PerkinElmer) method. First, a test compound diluted with an assay buffer (50 mM Tris-HCl (pH 7.5), 50 mM KCl, 1 mM DTT, 0.1% BSA) was added to a 384 well plate by 5 μL each. […] The mixture was stood in a dark place for 1 hr, and the signal value was measured by Envision (PerkinElmer).

[4] = tested on: human PBMC; test: IL17 Production Test in Human PBMC; assay type: cell-based; settings: 72 h, inhibitory rate at 10 μM of test compound, anti-CD3/CD28 stimulation, 3 days, IL-17A by ELISA
Method: Peripheral blood mononuclear cells (PBMC) collected from human peripheral blood by a density gradient centrifugation method were stimulated by Dynabeads (registered trade mark; anti-CD3/CD28 antibody) and cultured at 37° C. for 3 days. The compound was dissolved in DMSO and then added thereto. After culture for 3 days under such conditions, the concentration of IL-17A in the culture supernatant obtained by centrifugation was measured by ELISA to evaluate the effect of the compound on IL-17 production.

[5] = tested on: Th17 cells; test: Human Th17 Cell Differentiation Test (IL-17A in culture supernatant, ELISA); assay type: cell-based; settings: 144 h; inhibitory rate at 10 μM of test compound; human CD4 positive naive T cells, 6 days, IL-17A by ELISA
Method: CD4 positive naive T cells were isolated from peripheral blood mononuclear cells (PBMC) collected from human peripheral blood by a density gradient centrifugation method. The CD4 positive naive T cells were seeded in a 96 well plate (2×10^4 cells/well), and stimulated (37° C. for culture) with anti-CD 3/28Ab Dynabeads (Invitrogen) for 6 days in the presence of IL-1β, IL-6, IL-23, TGFβ, anti-IFNγ Ab (BioLegend) and anti-IL-4 Ab (BioLegend) to differentiate into Th17 cells. The compound was dissolved in DMSO and then added thereto. After culture for 6 days, the concentration of IL-17A in the culture supernatant obtained by centrifugation was measured by ELISA to evaluate differentiation of the Th17 cells.

[6] = tested on: Th17 cells; test: Mouse Th17 Cell Differentiation Test (IL-17A in culture supernatant, ELISA); assay type: cell-based; settings: 96 h, inhibitory rate at 10 μM of test compound, mouse CD4 positive naive T cells, 4 days, IL-17A by ELISA
Method: CD4 positive naive T cells were collected from the spleen cells of BALB/c mice (female, 8-11w, Charles River Laboratories Japan, Inc.) using CD4+CD62L+ T Cell Isolation kit II (Miltenyi Biotec). The CD4 positive naive T cells in a 96 well plate (3×10^5 cells/well) were stimulated (37° C. for culture) with anti-mouse CD3ε antibody (Bio X cell) (10 μg/mL, solid phase) and anti-CD28 antibody (Bio X cell) (5 μg/mL) for 4 days in the presence of anti-IFN-γ antibody (BioLegend), anti-IL-4 antibody (BioLegend), anti-IL-2 antibody (BioLegend), IL-6, TGF-β and IL-23 to differentiate into Th17 cells. The compound was dissolved in DMSO and then added thereto. The cells were cultured under these conditions for 4 days, and differentiation of the Th17 cells was evaluated by using the concentration of IL-17A, which was measured by ELISA, in the culture supernatant obtained by centrifugation.

inhibition at 3 µM [1] [%] | inhibition at 1 µM [2] [%] | inhibition at 1 µM [3] [%] | SMILES | inhibition at 10 µM [4] [%] | inhibition at 10 µM [5] [%] | inhibition at 10 µM [6] [%] | inhibition at 10 µM ([6]; Mus musculus, CD4 positive) [%]
102 | 98.7 | 101 | CC(C)Cn1c2c(c3cc(NC(=O)CC(C)CC(=O)Nc4ccc(C#N)cc4)ccc31)CCCC2 (stereo not drawn) [Example 20, N-(4-cyanophenyl)-3-methyl-N′-[9-(2-methylpropyl)-2,3,4,9-tetrahydro-1H-carbazol-6-yl]pentanediamide] | 84 | 89.9 | 95.8 | –
103 | 98.9 | 101 | CCCn1c2c(c3cc(NC(=O)CC(C)CC(=O)Nc4ccc(C#N)cc4)ccc31)CCCC2 (stereo not drawn) [Example 19, N-(4-cyanophenyl)-3-methyl-N′-(9-propyl-2,3,4,9-tetrahydro-1H-carbazol-6-yl)pentanediamide] | 87 | 95.2 | 95.8 | –
92.5 | 94.4 | 100 | CCn1c2ccccc2c2cc(NC(=O)CC(C)(O)CCOc3ccc(C#N)c(Cl)c3)ccc21 (stereo not drawn) [Example 30, 5-(3-chloro-4-cyanophenoxy)-N-(9-ethyl-9H-carbazol-3-yl)-3-hydroxy-3-methylpentanamide] | 100 | 100 | 96.1 | –
– | – | – | CCn1c2ccccc2c2cc(NC(=O)CCCC(=O)Nc3ccc(C#N)cc3)ccc21 [Example 16, N-(4-cyanophenyl)-N′-(9-ethyl-9H-carbazol-3-yl)pentanediamide] | 91 | 96.2 | – | 96
– | – | – | CCn1c2c(c3cc(NC(=O)CC(C)CC(=O)Nc4ccc(C#N)cc4)ccc31)CCCC2 (stereo not drawn) [Example 4, N-(4-cyanophenyl)-N′-(9-ethyl-2,3,4,9-tetrahydro-1H-carbazol-6-yl)-3-methylpentanediamide] | 88.3 | 100 | – | 97
82.6 | 88.2 | 99.7 | CCn1c(C)c(C)c2cc(NC(=O)CC(C)CC(=O)Nc3ccc(C#N)cc3)ccc21 (stereo not drawn) [Example 3, N-(4-cyanophenyl)-N′-(1-ethyl-2,3-dimethyl-1H-indol-5-yl)-3-methylpentanediamide] | 73.3 | 80 | 97.1 | –
– | – | – | CCn1c2ccccc2c2cc(NC(=O)CC(C)CC(=O)Nc3ccc(C#N)c(C(F)(F)F)c3)ccc21 (stereo not drawn) [Example 18, N-[4-cyano-3-(trifluoromethyl)phenyl]-N′-(9-ethyl-9H-carbazol-3-yl)-3-methylpentanediamide] | 96 | 98.5 | – | 95.8
